{"source": "the supplement of paper PMC10307832", "test_in_all_cases": "relative viability (nuclei count vs DMSO), 5 days (fraction); higher = more cells survive", "key": {"AZD6482 + Lapatinib": {"compound": "Cc1cc([C@@H](C)Nc2ccccc2C(=O)O)c2nc(N3CCOCC3)cc(=O)n2c1 [AZD6482] + CS(=O)(=O)CCNCc1ccc(-c2ccc3ncnc(Nc4ccc(OCc5cccc(F)c5)c(Cl)c4)c3c2)o1 [Lapatinib] (partner 2 µM)", "summary_of_the_method": "(§1)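 Dosing by pin tool came one day after lung cancer cell lines were seeded in 1536-well plates, using either one drug or a fixed anchor-drug dose plus five library-drug doses (not always all listed) in √10 steps. After 5 days, nuclei were counted on 4× images. Relative viability is treated-well nuclei count divided by vehicle-well nuclei count, and values are medians of duplicate plates.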"}, "[1]": {"compound": "COc1cc2nc(N3CCCN(C)CC3)nc(NC3CCN(Cc4ccccc4)CC3)c2cc1OC + CC1(C)CCC(c2ccc(Cl)cc2)=C(CN2CCN(c3ccc(C(=O)NS(=O)(=O)c4ccc(N[C@H](CCN5CCOCC5)CSc5ccccc5)c(S(=O)(=O)C(F)(F)F)c4)cc3)CC2)C1 [Navitoclax] (partner 0.5 µM)", "summary_of_the_method": "as §1"}, "AZD6482 + Navitoclax": {"compound": "Cc1cc([C@@H](C)Nc2ccccc2C(=O)O)c2nc(N3CCOCC3)cc(=O)n2c1 [AZD6482] + CC1(C)CCC(c2ccc(Cl)cc2)=C(CN2CCN(c3ccc(C(=O)NS(=O)(=O)c4ccc(N[C@H](CCN5CCOCC5)CSc5ccccc5)c(S(=O)(=O)C(F)(F)F)c4)cc3)CC2)C1 [Navitoclax] (partner 0.5 µM)", "summary_of_the_method": "as §1"}, "[2]": {"compound": "COc1cc2nc(N3CCCN(C)CC3)nc(NC3CCN(Cc4ccccc4)CC3)c2cc1OC + COc1cccc2cc(-c3nc([C@H]4CC[C@H](C(=O)O)CC4)n4ncnc(N)c34)[nH]c12 [OSI-027] (partner 0.5 µM)", "summary_of_the_method": "as §1"}}}
{"cell line": "UMC-11", "values": [{"measurement": "relative viability", "setting": "AZD6482 + Lapatinib; first compound 0.08 µM", "value": 0.875}, {"measurement": "relative viability", "setting": "AZD6482 + Lapatinib; first compound 0.253 µM", "value": 0.902}, {"measurement": "relative viability", "setting": "AZD6482 + Lapatinib; first compound 0.8 µM", "value": 1.03}, {"measurement": "relative viability", "setting": "AZD6482 + Lapatinib; first compound 2.53 µM", "value": 0.602}, {"measurement": "relative viability", "setting": "AZD6482 + Lapatinib; first compound 8 µM", "value": 1.34}, {"measurement": "relative viability", "setting": "[1]; first compound 0.2 µM", "value": 0.315}, {"measurement": "relative viability", "setting": "[1]; first compound 0.6325 µM", "value": 0.333}, {"measurement": "relative viability", "setting": "[1]; first compound 2 µM", "value": 0.317}, {"measurement": "relative viability", "setting": "[1]; first compound 6.325 µM", "value": 0.254}, {"measurement": "relative viability", "setting": "AZD6482 + Navitoclax; first compound 0.08 µM", "value": 0.331}, {"measurement": "relative viability", "setting": "AZD6482 + Navitoclax; first compound 0.253 µM", "value": 0.329}, {"measurement": "relative viability", "setting": "AZD6482 + Navitoclax; first compound 0.8 µM", "value": 0.313}, {"measurement": "relative viability", "setting": "AZD6482 + Navitoclax; first compound 2.53 µM", "value": 0.309}, {"measurement": "relative viability", "setting": "AZD6482 + Navitoclax; first compound 8 µM", "value": 0.275}, {"measurement": "relative viability", "setting": "[2]; first compound 0.2 µM", "value": 0.534}, {"measurement": "relative viability", "setting": "[2]; first compound 0.6325 µM", "value": 0.461}, {"measurement": "relative viability", "setting": "[2]; first compound 2 µM", "value": 0.398}, {"measurement": "relative viability", "setting": "[2]; first compound 6.325 µM", "value": 0.284}]}
